Reference: patent publication US20250230193A1, “CYCLIC COMPOUND HAVING SELECTIVE KRAS INHIBITORY EFFECT ON HRAS AND NRAS” (CHUGAI SEIYAKU KABUSHIKI KAISHA, priority 2022, published 2025)

How the values were obtained:
[1] = target: GDP-bound NRAS wild-type protein (Homo sapiens, UniProt P01111); assay: Binding to NRAS by surface plasmon resonance (SPR), Single Cycle Kinetics; conditions: KD ratio NRAS/KRAS, SPR, GDP-bound wild-type proteins
[2] = target: GDP-bound HRAS wild-type protein (Homo sapiens, UniProt P01112); assay: Binding to HRAS by surface plasmon resonance (SPR), Single Cycle Kinetics; conditions: KD ratio HRAS/KRAS, SPR, GDP-bound wild-type proteins
GDP-bound HRAS wild-type protein, sequence (P01112 whole entry): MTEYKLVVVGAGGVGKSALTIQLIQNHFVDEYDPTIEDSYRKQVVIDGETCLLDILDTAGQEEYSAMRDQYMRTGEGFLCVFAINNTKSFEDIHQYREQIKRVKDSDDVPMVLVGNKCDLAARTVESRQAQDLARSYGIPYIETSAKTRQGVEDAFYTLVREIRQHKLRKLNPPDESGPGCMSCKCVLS

GDP-bound NRAS wild-type protein, sequence (P01111 whole entry): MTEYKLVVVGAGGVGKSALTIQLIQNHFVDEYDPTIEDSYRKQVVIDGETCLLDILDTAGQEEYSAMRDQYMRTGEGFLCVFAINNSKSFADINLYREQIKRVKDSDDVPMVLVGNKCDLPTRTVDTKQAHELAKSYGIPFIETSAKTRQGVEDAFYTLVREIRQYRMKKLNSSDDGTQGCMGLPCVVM

Structure (SMILES) | NRAS/KRAS (ratio of KD value with respect to GDP-bound NRAS wild-type protein to KD value with respect to KRAS) [1] | HRAS/KRAS (ratio of KD value with respect to GDP-bound HRAS wild-type protein to KD value with respect to KRAS) [2]
CCC[C@H]1C(=O)N[C@@H]([C@@H](C)CC)C(=O)N2CCC[C@H]2C(=O)N(C)[C@H]2C/C=C\CCN(C2=O)[C@@H](Cc2ccc(C)cc2)C(=O)N(C)CC(=O)N[C@@H](CCc2ccc(C(F)(F)F)c(OC)c2)C(=O)N2C[C@H](OCC)C[C@H]2C(=O)N(C)C2(CCC2)C(=O)N(C)[C@@H](C2CCCC2)C(=O)N(C)[C@H](C(=O)N2CCCC2)CC(=O)N1C [PP3102, (1S,4S,10S,13S,17S,20S,26S,28R,32S,38S,42Z)-20-cyclopentyl-28-ethoxy-32-[2-[3-methoxy-4-(trifluoromethyl)phenyl]ethyl]-2,14,18,21,24,36-hexamethyl-10-[(1S)-1-methylpropyl]-13-propyl-38-(p-tolylmethyl)-17-(pyrrolidine-1-carbonyl)spiro[2,8,11,14,18,21,24,30,33,36,39-undecazatetracyclo[37.5.1.0^4,8.0^26,30]pentatetracont-42-ene-23,1′-cyclobutane]-3,9,12,15,19,22,25,31,34,37,45-undecone] | A (a compound having 10 or more and less than 20 is denoted as A) | A (a compound having 10 or more and less than 20 is denoted as A)
CCC[C@H]1C(=O)N[C@@H]([C@@H](C)CC)C(=O)N(C)CC(=O)N(C)[C@H]2C/C=C\CCN(C2=O)[C@@H](Cc2ccc(C)cc2)C(=O)N(C)CC(=O)N[C@@H](CCc2ccc(C(F)(F)F)c(OC)c2)C(=O)N2C[C@H](OCC)C[C@H]2C(=O)N(C)C2(CCC2)C(=O)N(C)[C@@H](C2CCCC2)C(=O)N(C)[C@H](C(=O)N2CCCCC2)CC(=O)N1C [PP3104, (2S,8S,12R,14S,20S,23S,27S,30S,36S,38Z)-20-cyclopentyl-12-ethoxy-8-[2-[3-methoxy-4-(trifluoromethyl)phenyl]ethyl]-4,16,19,22,26,32,35-heptamethyl-30-[(1S)-1-methylpropyl]-23-(piperidine-1-carbonyl)-27-propyl-2-(p-tolylmethyl)spiro[1,4,7,10,16,19,22,26,29,32,35-undecazatricyclo[34.5.1.0^10,14]dotetracont-38-ene-17,1′-cyclobutane]-3,6,9,15,18,21,25,28,31,34,42-undecone] | A (a compound having 10 or more and less than 20 is denoted as A) | A (a compound having 10 or more and less than 20 is denoted as A)
CCC[C@H]1C(=O)N[C@@H]([C@@H](C)CC)C(=O)N(C)CC(=O)N(C)[C@H]2C/C=C\CCN(C2=O)[C@@H](Cc2ccc(C(F)(F)F)cc2)C(=O)N(C)CC(=O)N[C@@H](CCc2ccc(C(F)(F)F)c(OC)c2)C(=O)N2C[C@H](OCC)C[C@H]2C(=O)N(C)C2(CCC2)C(=O)N(C)[C@@H](C2CCCC2)C(=O)N(C)[C@H](C(=O)N2CCCC2)CC(=O)N1C [PP3105, (2S,8S,12R,14S,20S,23S,27S,30S,36S,38Z)-20-cyclopentyl-12-ethoxy-8-[2-[3-methoxy-4-(trifluoromethyl)phenyl]ethyl]-4,16,19,22,26,32,35-heptamethyl-30-[(1S)-1-methylpropyl]-27-propyl-23-(pyrrolidine-1-carbonyl)-2-[[4-(trifluoromethyl)phenyl]methyl]spiro[1,4,7,10,16,19,22,26,29,32,35-undecazatricyclo[34.5.1.0^10,14]dotetracont-38-ene-17,1′-cyclobutane]-3,6,9,15,18,21,25,28,31,34,42-undecone] | AA (a compound having 20 or more is denoted as AA) | A (a compound having 10 or more and less than 20 is denoted as A)
CCC[C@H]1C(=O)N[C@@H]([C@@H](C)CC)C(=O)N(C)CC(=O)N(C)[C@H]2C/C=C\CCN(C2=O)[C@@H](Cc2ccc(C)cc2)C(=O)N(C)CC(=O)N[C@@H](CCc2ccc(C(F)(F)F)c(OC)c2)C(=O)N2C[C@H](OCC)C[C@H]2C(=O)N(C)C2(CCC2)C(=O)N(C)[C@@H](C2CCCC2)C(=O)N(C)[C@H](C(=O)N2CCCC2)CC(=O)N1C [PP3106, (2S,8S,12R,14S,20S,23S,27S,30S,36S,38Z)-20-cyclopentyl-12-ethoxy-8-[2-[3-methoxy-4-(trifluoromethyl)phenyl]ethyl]-4,16,19,22,26,32,35-heptamethyl-30-[(1S)-1-methylpropyl]-27-propyl-2-(p-tolylmethyl)-23-(pyrrolidine-1-carbonyl)spiro[1,4,7,10,16,19,22,26,29,32,35-undecazatricyclo[34.5.1.0^10,14]dotetracont-38-ene-17,1′-cyclobutane]-3,6,9,15,18,21,25,28,31,34,42-undecone] | A (a compound having 10 or more and less than 20 is denoted as A) | A (a compound having 10 or more and less than 20 is denoted as A)
CCC[C@H]1C(=O)N[C@@H]([C@@H](C)CC)C(=O)N(C2CC2)CC(=O)N(C)[C@H]2C/C=C\CCN(C2=O)[C@@H](Cc2ccc(C(F)(F)F)cc2)C(=O)N(C)CC(=O)N[C@@H](CCc2cc(F)c(C(F)(F)F)c(F)c2)C(=O)N2C[C@H](OCC)C[C@H]2C(=O)N(C)C2(CCC2)C(=O)N(C)[C@@H](C2CCCC2)C(=O)N(C)[C@H](C(=O)N2CCCCC2)CC(=O)N1C [PP3110] | A (a compound having 10 or more and less than 20 is denoted as A) | A (a compound having 10 or more and less than 20 is denoted as A)
CCC[C@H]1C(=O)N[C@@H]([C@@H](C)CC)C(=O)N(C2CC2)CC(=O)N(C)[C@H]2C/C=C\CCN(C2=O)[C@@H](Cc2ccc(C(F)(F)F)cc2)C(=O)N(C)CC(=O)N[C@@H](CCc2cc(F)c(C(F)(F)F)c(F)c2)C(=O)N2C[C@H](OCC)C[C@H]2C(=O)N(C)C2(CCC2)C(=O)N(C)[C@@H](C2CCCC2)C(=O)N(C)[C@H](C(=O)N2CCCC2)CC(=O)N1C [PP3112] | A (a compound having 10 or more and less than 20 is denoted as A) | B (a compound having 3 or more and less than 10 is denoted as B)
CCC[C@H]1C(=O)N[C@@H]([C@@H](C)CC)C(=O)N(C2CC2)CC(=O)N(C)[C@H]2C/C=C\CCN(C2=O)[C@@H](Cc2ccc(C)cc2)C(=O)N(C)CC(=O)N[C@@H](CCc2cc(F)c(C(F)(F)F)c(F)c2)C(=O)N2C[C@H](OCC)C[C@H]2C(=O)N(C)C2(CCC2)C(=O)N(C)[C@@H](C2CCCC2)C(=O)N(C)[C@H](C(=O)N2CCCC2)CC(=O)N1C [PP3113, (2S,8S,12R,14S,20S,23S,27S,30S,36S,38Z)-20-cyclopentyl-32-cyclopropyl-8-[2-[3,5-difluoro-4-(trifluoromethyl)phenyl]ethyl]-12-ethoxy-4,16,19,22,26,35-hexamethyl-30-[(1S)-1-methylpropyl]-27-propyl-2-(p-tolylmethyl)-23-(pyrrolidine-1-carbonyl)spiro[1,4,7,10,16,19,22,26,29,32,35-undecazatricyclo[34.5.1.0^10,14]dotetracont-38-ene-17,1′-cyclobutane]-3,6,9,15,18,21,25,28,31,34,42-undecone] | A (a compound having 10 or more and less than 20 is denoted as A) | A (a compound having 10 or more and less than 20 is denoted as A)
CCC[C@H]1C(=O)N[C@@H]([C@@H](C)CC)C(=O)N2CCC[C@H]2C(=O)N(C)[C@H]2C/C=C\CCN(C2=O)[C@@H](Cc2ccc(C(F)(F)F)cc2)C(=O)N(C)CC(=O)N[C@@H](CCc2cc(F)c(C(F)(F)F)c(F)c2)C(=O)N2C[C@H](OCC)C[C@H]2C(=O)N(C)C2(CCC2)C(=O)N(C)[C@@H](C2CCCC2)C(=O)N(C)[C@H](C(=O)N2CCCCC2)CC(=O)N1C [PP3114] | AA (a compound having 20 or more is denoted as AA) | A (a compound having 10 or more and less than 20 is denoted as A)
CCC[C@H]1C(=O)N[C@@H]([C@@H](C)CC)C(=O)N2CCC[C@H]2C(=O)N(C)[C@H]2C/C=C\CCN(C2=O)[C@@H](Cc2ccc(C)cc2)C(=O)N(C)CC(=O)N[C@@H](CCc2cc(F)c(C(F)(F)F)c(F)c2)C(=O)N2C[C@H](OCC)C[C@H]2C(=O)N(C)C2(CCC2)C(=O)N(C)[C@@H](C2CCCC2)C(=O)N(C)[C@H](C(=O)N2CCCCC2)CC(=O)N1C [PP3115, (1S,4S,10S,13S,17S,20S,26S,28R,32S,38S,42Z)-20-cyclopentyl-32-[2-[3,5-difluoro-4-(trifluoromethyl)phenyl]ethyl]-28-ethoxy-2,14,18,21,24,36-hexamethyl-10-[(1S)-1-methylpropyl]-17-(piperidine-1-carbonyl)-13-propyl-38-(p-tolylmethyl)spiro[2,8,11,14,18,21,24,30,33,36,39-undecazatetracyclo[37.5.1.0^4,8.0^26,30]pentatetracont-42-ene-23,1′-cyclobutane]-3,9,12,15,19,22,25,31,34,37,45-undecone] | A (a compound having 10 or more and less than 20 is denoted as A) | B (a compound having 3 or more and less than 10 is denoted as B)
CCC[C@H]1C(=O)N[C@@H]([C@@H](C)CC)C(=O)N2CCC[C@H]2C(=O)N(C)[C@H]2C/C=C\CCN(C2=O)[C@@H](Cc2ccc(C(F)(F)F)cc2)C(=O)N(C)CC(=O)N[C@@H](CCc2cc(F)c(C(F)(F)F)c(F)c2)C(=O)N2C[C@H](OCC)C[C@H]2C(=O)N(C)C2(CCC2)C(=O)N(C)[C@@H](C2CCCC2)C(=O)N(C)[C@H](C(=O)N2CCCC2)CC(=O)N1C [PP3116] | A (a compound having 10 or more and less than 20 is denoted as A) | A (a compound having 10 or more and less than 20 is denoted as A)
